# Reference: US20220098196A1, “TRAPPING-FREE PARP INHIBITORS” (The Board of Regents of the University of Texas System, priority 2019, published 2022)
# Columns and labels:
# PARP1 [1] = biological target: T1, PARP1 (Homo sapiens, UniProt P09874); assay: In Vitro PARP1 Activity Assay (PARP universal chemiluminescent assay kit); assay type: biochemical; conditions: mean±SEM (n=3)
# Protocol: In Vitro PARP1 Activity Assay. […] Briefly, the histone-coated strip wells were hydrated with the assay buffer for 30 min. The various compounds were added and were incubated with the PARP enzyme for 10 min. The reaction cocktail containing biotinylated NAD^+ was then added into the system, which was incubated for 1 hour to activate PARP1. After the reaction, the wells were washed twice with 0.1% Triton X-100/PBS and twice with PBS. The wells were incubated with Strep-HRP for another hour and were washed again as described above. PeroxyGlow reagents were mixed and added into the strip wells, and the biotin signal on coated histone was immediately measured with chemiluminescence on a Synergy microplate reader (Bio-Tek). The well without PARP1, and the well with PARP1 only was used as the negative (0%) and positive (100%) control, respectively.
# HeLa cells = assay: TMT global protein expression analysis in HeLa cells (whole proteome); assay type: cell-based, human
# Protocol: (§1) Quantitative Mass Spectrometry. […] Two biological replicate samples were prepared for each treatment condition. Cells were washed with cold PBS and lysed using the SDS lysis buffer. Protein concentrations were determined by the BCA assay (Thermo Fisher Scientific). For each sample, 500 μg of protein was used for the subsequent TMT experiments^34.
# For the TMT experiments, proteins were reduced with 2 mM DTT for 10 min and alkylated with 50 mM iodoacetamide for 30 min in dark. Proteins were then extracted using methanol-chloroform precipitation. […] Proteins were subsequently digested with trypsin (Thermo Fisher Scientific, at 1:100 enzyme/protein ratio) overnight at RT. Peptides were desalted with Oasis HLB cartridges (Waters) and resuspended in 200 mM HEPES (pH 8.5) to a final concentration of […]. For each sample, 100 μg of peptides were reacted with the corresponding amine-based TMT six-plex reagents (Thermo Fisher Scientific) for 1 hour. The reactions were quenched with 5% hydroxylamine solution and were combined.
# Samples were desalted and fractioned by bRPLC (basic pH reversed phase HPLC) on a ZORBAX 300 Extend-C18 column (Narrow Bore RR 2.1 mm×100 mm, 3.5 μm particle size, 300 Å pore size). Buffer A is (10 mM Ammonium Formate in H2O, pH 10.0). Gradient was developed at a flow rate of 0.2 mL/min from 0% to 70% buffer B (1 mM Ammonium Formate, pH 10.0, 90% ACN). […] Samples were then analyzed on an Orbitrap Elite mass spectrometer (Thermo Fisher Scientific) using a top 15 HCD (higher-energy collisional dissociation) method.
# (§2) The maximum intensity of each reporter ion was extracted. For each reporter ion channel, the observed signal-to-noise ratio was summed across all quantified proteins and was normalized.
# [2] = biological target: T2, hexose-6-phosphate dehydrogenase (H6PD) (Homo sapiens, UniProt O95479); assay: TMT quantitative proteomics in HeLa cells, H6PD; assay type: cell-based; conditions: 5 μM, 24 hours
# T2 construct: host or cells: HeLa
# T2 sequence (O95479 20-791): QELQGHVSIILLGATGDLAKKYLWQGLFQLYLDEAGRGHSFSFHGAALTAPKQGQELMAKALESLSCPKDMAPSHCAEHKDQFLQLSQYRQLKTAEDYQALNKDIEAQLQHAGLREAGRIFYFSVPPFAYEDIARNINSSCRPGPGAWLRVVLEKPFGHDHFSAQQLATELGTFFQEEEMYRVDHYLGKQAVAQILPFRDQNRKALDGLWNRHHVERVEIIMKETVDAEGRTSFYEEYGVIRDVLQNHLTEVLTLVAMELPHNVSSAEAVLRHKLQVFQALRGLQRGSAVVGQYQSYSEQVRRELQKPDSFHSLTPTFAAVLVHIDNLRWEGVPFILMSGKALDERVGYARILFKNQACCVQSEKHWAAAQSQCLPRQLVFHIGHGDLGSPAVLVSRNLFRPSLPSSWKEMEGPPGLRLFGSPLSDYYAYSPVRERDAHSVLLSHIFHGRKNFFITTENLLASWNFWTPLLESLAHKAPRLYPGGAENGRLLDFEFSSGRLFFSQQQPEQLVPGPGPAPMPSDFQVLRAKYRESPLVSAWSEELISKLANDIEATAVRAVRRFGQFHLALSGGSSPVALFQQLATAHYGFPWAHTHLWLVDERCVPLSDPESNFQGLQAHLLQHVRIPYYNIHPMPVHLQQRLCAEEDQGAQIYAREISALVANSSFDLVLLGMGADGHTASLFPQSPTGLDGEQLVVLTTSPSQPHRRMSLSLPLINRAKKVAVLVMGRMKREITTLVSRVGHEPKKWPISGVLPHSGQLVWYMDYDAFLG
# Excerpt: Quantitative Mass Spectrometry.
# Proteins were then extracted using methanol-chloroform precipitation.
# The maximum intensity of each reporter ion was extracted.
# PARP1 [3] = biological target: T3, PARP1 (Rattus norvegicus, UniProt P27008); assay: PARP1 degradation in primary rat cardiomyocytes (immunoblotting); assay type: cell-based; conditions: 24 hours
# T3 construct: endogenous in cells; host or cells: primary neonatal rat cardiomyocytes
# Protocol: (§3) Immunoblotting. Cells were washed once with cold PBS and lysed with the SDS lysis buffer (1% SDS, 10 mM HEPES pH 7.0, 2 mM MgCl2, 500 U universal nuclease). Protein concentrations were determined by the BCA assay kit (Thermo Fisher Scientific). A total of 20 μg proteins (40 μg proteins for PAR immunoblotting experiments) were loaded onto the SDS-PAGE gel and were then transferred to a nitrocellulose membrane. Nitrocellulose membranes were then blocked with the TBST buffer containing 5% milk (Bio-Rad). Membranes were incubated with the primary antibodies overnight at 4° C. and the secondary antibodies for 1 hour at room temperature (RT). The blots were developed using enhanced chemiluminescence and were exposed on autoradiograph films.
# [4] = tested on: primary rat cardiomyocytes; assay: ATP measurement in primary rat cardiomyocytes after MMS (CellTiter-Glo); assay type: cell-based; conditions: 5 μM 24 hours pretreatment, MMS 0.01% 9 hours
# Protocol: ATP and NAD^+ measurement. ATP levels were measured by a luminescence assay using the CellTiter-Glo luminescent kit (Promega). […] The cells were balanced for 30 min at RT. One hundred microliters of the CellTiter-Glo reagent was added into each well and incubated for 10 min. ATP levels were determined according the manufacturer's instruction. NAD^+ levels were assayed using an NAD/NADH quantification kit (Sigma). […] Approximately 2×10^5 cells were washed with 1 mL cold PBS and lysed in 400 μl of the extraction buffer. […] The samples were vortexed for 15 sec and centrifuged at 13,000 g for 10 min to remove the insoluble materials. NAD^+ was quantified according to the manufacturer's instruction (Sigma). Fifty microliters of the extracts were used in the NAD^+ assay, and the values were normalized by the amount of protein in each sample.
# PARP1 [5] = biological target: T1, PARP1; assay: TMT quantitative proteomics in HeLa cells, PARP1; assay type: cell-based; set-up: host or cells: HeLa
# Protocol: as §1
# For the TMT experiments, proteins were reduced with 2 mM DTT for 10 min and alkylated with 50 mM iodoacetamide for 30 min in dark. Proteins were then extracted using methanol-chloroform precipitation. […] Proteins were subsequently digested with trypsin (Thermo Fisher Scientific, at 1:100 enzyme/protein ratio) overnight at RT. […]
# Samples were desalted and fractioned by bRPLC (basic pH reversed phase HPLC) on a ZORBAX 300 Extend-C18 column (Narrow Bore RR 2.1 mm×100 mm, 3.5 μm particle size, 300 Å pore size). […] Samples were then analyzed on an Orbitrap Elite mass spectrometer (Thermo Fisher Scientific) using a top 15 HCD (higher-energy collisional dissociation) method.
# as §2
# PARP1 [6] = biological target: T1, PARP1; assay: Quantitative analysis of the Asp- and Glu-ADP-ribosylated proteome (SILAC HeLa cells); assay type: cell-based; set-up: host or cells: HeLa; conditions: 10 μM, 1 hr, H2O2 2 mM, compared with Rucaparib
# Protocol: Protein concentrations were determined by the BCA assay kit.
# PARP1 [7] = biological target: T1, PARP1; assay: PARP1 degradation in MDA-MB-468 cells (immunoblotting); assay type: cell-based; set-up: host or cells: MDA-MB-468; BT-549; PC-3; 786-O
# Protocol: as §3
# T1 sequence (P09874 whole entry): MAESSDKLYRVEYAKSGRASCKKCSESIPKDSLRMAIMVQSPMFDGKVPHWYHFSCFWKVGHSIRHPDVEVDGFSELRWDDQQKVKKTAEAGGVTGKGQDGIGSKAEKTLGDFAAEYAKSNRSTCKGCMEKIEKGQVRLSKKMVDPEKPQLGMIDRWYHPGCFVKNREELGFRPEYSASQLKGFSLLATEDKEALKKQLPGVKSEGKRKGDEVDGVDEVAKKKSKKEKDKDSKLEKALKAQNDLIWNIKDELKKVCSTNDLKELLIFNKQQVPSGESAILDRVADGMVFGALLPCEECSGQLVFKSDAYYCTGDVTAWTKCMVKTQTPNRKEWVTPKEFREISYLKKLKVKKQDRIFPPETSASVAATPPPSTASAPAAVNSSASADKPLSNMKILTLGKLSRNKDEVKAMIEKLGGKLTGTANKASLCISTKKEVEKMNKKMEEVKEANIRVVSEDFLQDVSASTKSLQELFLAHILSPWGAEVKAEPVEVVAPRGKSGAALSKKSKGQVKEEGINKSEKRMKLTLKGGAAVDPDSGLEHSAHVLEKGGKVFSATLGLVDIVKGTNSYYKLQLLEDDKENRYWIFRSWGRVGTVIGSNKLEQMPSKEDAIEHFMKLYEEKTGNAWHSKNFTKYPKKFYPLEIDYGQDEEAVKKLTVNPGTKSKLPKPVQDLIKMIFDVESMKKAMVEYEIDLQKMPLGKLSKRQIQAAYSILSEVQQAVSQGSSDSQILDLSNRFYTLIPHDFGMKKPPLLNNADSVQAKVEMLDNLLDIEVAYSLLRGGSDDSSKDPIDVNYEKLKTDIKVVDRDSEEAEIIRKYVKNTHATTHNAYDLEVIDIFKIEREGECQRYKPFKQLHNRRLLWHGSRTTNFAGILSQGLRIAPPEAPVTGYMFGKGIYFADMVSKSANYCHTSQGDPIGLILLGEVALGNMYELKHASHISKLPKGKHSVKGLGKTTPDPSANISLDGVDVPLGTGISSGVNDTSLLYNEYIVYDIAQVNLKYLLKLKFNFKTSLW
# T3 sequence (P27008 whole entry): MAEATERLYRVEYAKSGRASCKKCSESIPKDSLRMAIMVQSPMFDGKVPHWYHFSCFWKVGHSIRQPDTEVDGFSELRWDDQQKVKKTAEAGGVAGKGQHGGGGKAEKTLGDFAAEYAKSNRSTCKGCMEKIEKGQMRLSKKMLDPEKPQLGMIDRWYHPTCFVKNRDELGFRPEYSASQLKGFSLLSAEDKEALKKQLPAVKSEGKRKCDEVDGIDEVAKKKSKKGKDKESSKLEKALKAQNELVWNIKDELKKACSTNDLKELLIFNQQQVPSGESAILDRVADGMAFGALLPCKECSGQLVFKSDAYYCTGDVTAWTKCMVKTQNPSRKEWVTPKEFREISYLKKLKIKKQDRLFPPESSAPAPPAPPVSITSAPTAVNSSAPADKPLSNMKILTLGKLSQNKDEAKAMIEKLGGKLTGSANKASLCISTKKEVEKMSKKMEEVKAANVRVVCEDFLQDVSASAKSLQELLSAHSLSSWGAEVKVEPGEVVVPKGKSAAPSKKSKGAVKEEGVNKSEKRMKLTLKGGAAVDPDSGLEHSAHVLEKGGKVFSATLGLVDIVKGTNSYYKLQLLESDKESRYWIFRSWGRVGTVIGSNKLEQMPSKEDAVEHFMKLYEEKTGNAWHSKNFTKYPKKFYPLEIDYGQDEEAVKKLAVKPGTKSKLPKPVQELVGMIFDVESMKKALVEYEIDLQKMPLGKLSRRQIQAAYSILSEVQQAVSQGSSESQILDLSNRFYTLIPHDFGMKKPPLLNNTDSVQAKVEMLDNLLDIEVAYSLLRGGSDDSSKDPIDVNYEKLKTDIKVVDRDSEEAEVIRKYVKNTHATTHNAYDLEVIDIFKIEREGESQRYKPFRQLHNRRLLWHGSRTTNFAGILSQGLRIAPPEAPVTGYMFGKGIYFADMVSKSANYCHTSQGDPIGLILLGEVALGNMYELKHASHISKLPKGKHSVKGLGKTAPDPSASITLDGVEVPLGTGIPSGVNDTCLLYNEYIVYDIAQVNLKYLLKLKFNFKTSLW
compound,measurement,setting,value
"CN(CCCCc1cn(CCOCCOCCOCCNc2cccc3c2C(=O)N(C2CCC(=O)NC2=O)C3=O)nn1)Cc1ccc(-c2[nH]c3cc(F)cc4c3c2CCNC4=O)cc1 (centres unmarked) [iRucaparib, Rucaparib-Triazole-PEG3-Pomalidomide]",IC50,PARP1 [1],18.3 nM
same,proteins with 2-fold decrease (potential pomalidomide-induced degradation targets),"HeLa cells; DMSO vs. iRucaparib (5 μM) plus Rucaparib (1 μM), 24 hours",UBBP4 and ZFP91
same,number of proteins with abundance decreased by more than 2-fold,"HeLa cells; iRucaparib 5 μM 24 hours vs DMSO, 7,437 quantified proteins",five
same,"downregulation of other PARPs (PARP16, PARP14, PARP4, PARP12, PARP9, TNKS1)","HeLa cells; iRucaparib 5 μM, 24 hours",none of the other PARPs exhibited significant downregulation
same,H6PD Log 2(iRucaparib/DMSO) ratio,[2],0.02
same,PARP1 degradation,PARP1 [3],robust iRucaparib-induced PARP1 degradation
same,rescue of MMS-lowered ATP abundances,[4],could be rescued
same,PARP1 Log 2(iRucaparib/DMSO) ratio,"PARP1 [5]; 5 μM, 24 hours",−1.49
same,"PARP1 decrease, iRucaparib vs. iRucaparib/Rucaparib group","PARP1 [5]; only protein among 7,437 quantified",more than 2 fold
same,response of PARP1 auto-modified peptide AEPVE*VVAPR,PARP1 [6],very similar response
same,effective concentration for PARP1 degradation,PARP1 [7],around 2 μM
